Test results reported in article PMC10330135 (Chemistry (Weinheim an der Bergstrasse, Germany), 2023).

Columns and labels:
Assay type in all cases: biochemical
PtmJ = target: T1, PtmJ (Streptomyces pactum, UniProt A8R0J5); experiment: enzymatic glycosylation
T1 sequence (A8R0J5 1-318): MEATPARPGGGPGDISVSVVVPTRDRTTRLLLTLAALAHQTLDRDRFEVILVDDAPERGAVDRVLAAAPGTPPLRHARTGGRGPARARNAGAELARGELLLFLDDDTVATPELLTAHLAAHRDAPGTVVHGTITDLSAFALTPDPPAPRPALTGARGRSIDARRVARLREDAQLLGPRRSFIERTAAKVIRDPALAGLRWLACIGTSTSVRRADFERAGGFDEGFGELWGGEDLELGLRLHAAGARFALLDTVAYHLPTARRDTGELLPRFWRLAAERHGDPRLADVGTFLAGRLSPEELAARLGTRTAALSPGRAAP

PtmN = target: T2, PtmN (Streptomyces pactum, UniProt A8R0J9); experiment: mass spectrometry of product; details: NAD+; cofactor recycling as for GlcNAc-3AAP
T2 sequence (A8R0J9 1-351): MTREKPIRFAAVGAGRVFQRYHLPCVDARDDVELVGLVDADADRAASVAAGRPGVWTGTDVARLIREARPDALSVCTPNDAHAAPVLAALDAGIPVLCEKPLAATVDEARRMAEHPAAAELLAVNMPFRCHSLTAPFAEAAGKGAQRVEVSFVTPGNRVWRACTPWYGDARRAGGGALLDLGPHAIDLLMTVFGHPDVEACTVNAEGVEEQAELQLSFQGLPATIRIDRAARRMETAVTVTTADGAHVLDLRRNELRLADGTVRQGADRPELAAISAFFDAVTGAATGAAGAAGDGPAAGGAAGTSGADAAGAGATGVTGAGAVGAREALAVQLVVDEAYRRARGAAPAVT

PtmG = target: T3, PtmG (Streptomyces pactum, UniProt A8R0J2); experiment: mass spectrometry of substrate consumption; details: formed in situ by PtmN, PtmA and PtmB; 10 h with PtmG
T3 sequence (A8R0J2 1-378): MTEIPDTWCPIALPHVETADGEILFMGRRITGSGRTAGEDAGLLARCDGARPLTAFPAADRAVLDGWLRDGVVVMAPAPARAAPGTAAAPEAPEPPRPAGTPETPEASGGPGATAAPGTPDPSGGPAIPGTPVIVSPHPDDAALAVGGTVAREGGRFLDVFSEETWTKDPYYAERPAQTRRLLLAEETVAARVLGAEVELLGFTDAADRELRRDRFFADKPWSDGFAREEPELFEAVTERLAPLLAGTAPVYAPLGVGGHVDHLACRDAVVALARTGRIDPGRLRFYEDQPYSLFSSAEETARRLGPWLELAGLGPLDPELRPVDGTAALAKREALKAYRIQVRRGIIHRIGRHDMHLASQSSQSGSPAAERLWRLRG

Structure (SMILES): CC(=O)NCCSC(=O)c1cccc(N)c1 [3ABA-SNAC]
- enzymatic glycosylation; product used in the next reactions (PtmJ): The 3ABA-SNAC was first glycosylated with the glycosyltransferase PtmJ

Structure (SMILES): CC(=O)NCCSC(=O)c1cccc(N[C@@H]2O[C@H](CO)[C@@H](O)[C@H](O)[C@H]2NC(C)=O)c1 [compound 15, GlcNAc-3ABA-SNAC]
- mass spectrometry of product (PtmN): reaction of GlcNAc-3ABA-SNAC with PtmN showed an oxidation product

Structure (SMILES): CC(=O)N[C@@H]1[C@@H](NC(N)=O)[C@H](O)[C@@H](CO)O[C@H]1Nc1cccc(C(C)=O)c1 [compound 20, N-carbamoylated GlcNAc-3AAP]
- mass spectrometry of substrate consumption (PtmG): after incubation with PtmG, the carbamoylated GlcNAc-3AAP was partially consumed
